# Counter-ions that a name gives are not always drawn.
# Columns and labels:
# [1] = tested on: P. aeruginosa PAO581 (PAO1mucA25); test: NIH drug library screen for inhibition of growth, mucoidy and PalgD-lacZ colour; type: cell-based, Pseudomonas aeruginosa; settings: for Growth 2 μM / Mucoidy 2 μM / Color 2 μM: drug at 2 μM; for Growth 2 μM / Growth 10 μM / Growth 50 μM: PAO581 on PIA; for Mucoidy 2 μM / Mucoidy 10 μM / Mucoidy 50 μM: PAO581 with pLP170-PalgD-lacZ on PIA + X-gal; for Color 2 μM / Color 10 μM / Color 50 μM: X-gal colour of PalgD-lacZ reporter, 'Light' wraps to 'Light Blue'; for Growth 10 μM / Mucoidy 10 μM / Color 10 μM: drug at 10 μM; for Growth 50 μM / Mucoidy 50 μM / Color 50 μM: drug at 50 μM
# [2] = Adverse effects after nebulization in mice; type: in vivo, C57BL/6 mice; settings: single nebulized dose of 5 ml of 100% DMSO; C57BL/6 mice (n=8)
# Experimental: Drug Nebulization. C57BL/6 mice (n=8) were first exposed to 5 mL DMSO for 10 minutes to determine any adverse effects that may occur from using DMSO. Mice (n=16) were then exposed to TOB in 0.225% saline or RFX in DMSO via nebulization until the 5 mL drug mixture was depleted—typically 10-15 minutes. Nebulization was conducted using the pressure-based nebulizer and chamber purchased from Kent Scientific (Torrington, Conn.). TOB was nebulized at concentrations of 100 mg (n=4) or 400 mg (n=4) in 5 mL of 0.225% saline. RFX was nebulized at concentrations of 100 mg (n=4) or 400 mg (n=4) in 5 ml of 100% dimethyl sulfoxide. Mice were sacrificed immediately after nebulization via CO2 chamber. Lungs were then collected and homogenized. TOB concentrations were measured using ELISA. RFX concentrations were measured via HPLC.
# The potential adverse effects of using DMSO were first assessed by nebulizing DMSO alone to a group of C57BL/6 mice (n=8). This type of mice was used due to their natural resistance against infection based on our previous studies. […] To determine the dosage of each drug received by the mice, the lungs were homogenized and drug concentrations of TOB and RFX were determined via ELISA and HPLC, respectively. […] The droplet size for both TOB and RFX were determined to be identical with the average droplet size for TOB and RFX being 5.07 μm and 5.02 μm, respectively. […]
structure (smiles),measurement,setting,value
CO[C@H]1/C=C/O[C@@]2(C)Oc3c(C)c(O)c4c(O)c(c(/C=N/N5CCN(C6CCCC6)CC5)c(O)c4c3C2=O)NC(=O)/C(C)=C\C=C\[C@H](C)[C@H](O)[C@@H](C)[C@@H](O)[C@@H](C)[C@H](OC(C)=O)[C@@H]1C [Rifapentine],Growth 2 μM,[1],Yes
same,Mucoidy 2 μM,[1],High
same,Color 2 μM,[1],Blue
same,Growth 10 μM,[1],Reduced
same,Mucoidy 10 μM,[1],Reduced
same,Color 10 μM,[1],Light
same,Growth 50 μM,[1],Inhibited
C[C@H]1COc2c(C3(N)CC3)c(F)cc3c(=O)c(C(=O)O)cn1c23 [Pazufloxacin],Growth 2 μM,[1],Inhibited
same,Growth 10 μM,[1],Inhibited
same,Growth 50 μM,[1],Inhibited
CO[C@H]1/C=C/O[C@@]2(C)Oc3c(C)c(O)c4c(c3C2=O)C2=NC3(CCN(CC(C)C)CC3)NC2=C(NC(=O)/C(C)=C\C=C\[C@H](C)[C@H](O)[C@@H](C)[C@@H](O)[C@@H](C)[C@H](OC(C)=O)[C@@H]1C)C4=O [Rifabutin],Growth 2 μM,[1],Reduced
same,Mucoidy 2 μM,[1],High
same,Color 2 μM,[1],Light
same,Growth 10 μM,[1],Inhibited
same,Growth 50 μM,[1],Inhibited
CCCCCCCCCOc1ccc2[nH]cc(CCN)c2c1 [5-Nonyloxyltryptamine],Growth 10 μM,[1],Yes
same,Mucoidy 10 μM,[1],High
same,Color 10 μM,[1],Blue
same,Growth 50 μM,[1],Reduced
same,Mucoidy 50 μM,[1],High
same,Color 50 μM,[1],Blue
"C[S+](C)[O-] [DMSO, dimethyl sulfoxide]",adverse effects,[2],no adverse effects
CC[C@H]1OC(=O)[C@H](C)[C@@H](O[C@H]2C[C@@](C)(OC)[C@@H](O)[C@H](C)O2)[C@H](C)[C@@H](O[C@@H]2O[C@H](C)C[C@H](N(C)C)[C@H]2O)[C@](C)(OC)C[C@@H](C)C(=O)[C@H](C)[C@@H](O)[C@]1(C)O [Clarithromycin],Growth 2 μM,[1],Yes
same,Mucoidy 2 μM,[1],High
same,Color 2 μM,[1],Blue
same,Growth 10 μM,[1],Reduced
same,Mucoidy 10 μM,[1],High
same,Color 10 μM,[1],Blue
same,Growth 50 μM,[1],Yes
same,Mucoidy 50 μM,[1],Inhibited
same,Color 50 μM,[1],Light
COc1c(N2C[C@@H]3CCCN[C@@H]3C2)c(F)cc2c(=O)c(C(=O)O)cn(C3CC3)c12 [Moxifloxacin Hydrochloride],Growth 2 μM,[1],Reduced
same,Mucoidy 2 μM,[1],Reduced
same,Color 2 μM,[1],Light
same,Growth 10 μM,[1],Inhibited
same,Growth 50 μM,[1],Inhibited
CN1CCN(c2c(F)cc3c(=O)c(C(=O)O)cn4c3c2SCC4)CC1 [Rufloxacin Monohydrate],Growth 10 μM,[1],Yes
same,Mucoidy 10 μM,[1],High
same,Color 10 μM,[1],Blue
same,Growth 50 μM,[1],Yes
same,Mucoidy 50 μM,[1],Inhibited
same,Color 50 μM,[1],Light
CCCCCCNC(=O)n1cc(F)c(=O)[nH]c1=O [Carmofur],Growth 2 μM,[1],Yes
same,Mucoidy 2 μM,[1],High
same,Color 2 μM,[1],Light
same,Growth 10 μM,[1],Reduced
same,Mucoidy 10 μM,[1],Inhibited
same,Color 10 μM,[1],Clear
same,Growth 50 μM,[1],Reduced
same,Mucoidy 50 μM,[1],Inhibited
same,Color 50 μM,[1],Clear
CCN1CCN(c2cc3c(cc2F)c(=O)c(C(=O)O)cn3C2CC2)CC1 [Enrofloxacin],Growth 2 μM,[1],Inhibited
same,Growth 10 μM,[1],Inhibited
same,Growth 50 μM,[1],Inhibited
NC1CCN(c2nc3c(cc2F)c(=O)c(C(=O)O)cn3-c2ccc(F)cc2F)C1 (stereo not drawn) [Tosufloxacin Tosilate],Growth 2 μM,[1],Inhibited
same,Growth 10 μM,[1],Inhibited
same,Growth 50 μM,[1],Inhibited

# From patent US10993935B2, “Compositions and methods for treatment of lung infections” (priority 2018, dated 2021)
